4 compounds from ChEMBL document CHEMBL4130410, “Novel rhynchophylline analogues as microvascular relaxation agents for the treatment of microvascular dysfunction caused by diabetes” (Eur J Med Chem, 2017) can be followed below.

The source made the active and inactive calls. The calls are words filed in the database; no cut-off is given here.

Assay [1] relates to Mesenteric artery. Nature of the assay: Vasorelaxant activity in Sprague-Dawley rat endothelium denuded mesentric artery rings assessed as inhibition of phenylephrine-induced contraction. The class given is functional, tissue-based.
Assay [2] relates to Mesenteric artery. Description: Vasorelaxant activity in Sprague-Dawley rat endothelium intact mesentric artery rings assessed as inhibition of KCl-induced contraction. The class given is functional, tissue-based.
In assay [3] the test system is Mesenteric artery. Nature of the assay: Vasorelaxant activity in Sprague-Dawley rat endothelium intact mesentric artery rings assessed as inhibition of phenylephrine-induced contraction in presence of non-selective calcium-activated K+ channel blocker TEA/VGCC blocker nifedipine. The class given is functional, tissue-based.
The subject of assay [4] is Mesenteric artery. Nature of the assay: Vasorelaxant activity in mesentric artery rings isolated from Sprague-Dawley rat assessed as inhibition of phenylephrine-induced contraction in presence of eNOS inhibitor L-NAME. The class given is functional, tissue-based.
For assay [5], the system named is Mesenteric artery. Nature of the assay: Vasorelaxant activity in Sprague-Dawley rat endothelium denuded mesentric artery rings assessed as inhibition of KCl-induced contraction. The class given is functional, tissue-based.
The test system of assay [6] is Rattus norvegicus. Description: In vivo vasorelaxant activity in streptozotocin-induced type-1 diabetic Sprague-Dawley rat model assessed as inhibition of phenylephrine-induced contraction in mesentric artery rings at 20 mg/kg, po via gavage for 1 week starting from 8 week post diabetic induction. Format: functional, organism-based.
For assay [7], the system named is Mesenteric artery. Nature of the assay: Vasorelaxant activity in Sprague-Dawley rat endothelium intact mesentric artery rings assessed as inhibition of phenylephrine-induced contraction. The class given is functional, tissue-based.
For assay [8], the system named is Rattus norvegicus. Description: In vivo vasorelaxant activity in streptozotocin-induced type-1 diabetic Sprague-Dawley rat model assessed as protection against eNOS loss in vessels by measuring increase in eNOS protein expression at 20 mg/kg, po via gavage for 1 week starting from 8 week post diabetic induction by Western blot method. Format: functional, organism-based. Background: A western blot detects proteins with antibodies after separation by electrophoresis.

Assay [9] concerns Mesenteric artery. Nature of the assay: Vasorelaxant activity in endothelium intact mesentric artery rings isolated from streptozotocin-induced type-1 diabetic Sprague-Dawley rat model assessed as inhibition of phenylephrine-induced contraction in presence of eNOS inhibitor L-NAME. The class given is functional, tissue-based.
Assay [10] has as its system Rattus norvegicus. Description: In vivo vasorelaxant activity in streptozotocin-induced type-1 diabetic Sprague-Dawley rat model assessed as increase in acetylcholine-induced endothelium dependent relaxation in mesentric artery rings at 20 mg/kg, po via gavage for 1 week starting from 8 week post diabetic induction. Format: functional, organism-based.
Assay [11] concerns Rattus norvegicus. Nature of the assay: In vivo vasorelaxant activity in streptozotocin-induced type-1 diabetic Sprague-Dawley rat model assessed as protection against eNOS loss in vessels at 20 mg/kg, po via gavage for 1 week starting from 8 week post diabetic induction by […] based assay. The class given is functional, organism-based.
Assay [12] has as its system Mesenteric artery. Nature of the assay: Vasorelaxant activity in endothelium intact mesentric artery rings isolated from streptozotocin-induced type-1 diabetic Sprague-Dawley rat model assessed as inhibition of phenylephrine-induced contraction. Format: functional, tissue-based.
Assay [13] has as its system Thoracic aorta. Description: Potency index, ratio of rhynchophylline IC50 to compound IC50 for vasorelaxant activity in rat thoracic aorta. Format: functional.
The test system of assay [14] is Thoracic aorta. Nature of the assay: Vasorelaxant activity in rat thoracic aorta. The class given is functional, tissue-based.

Usually Emax stands for the size of the effect at its maximum, as opposed to the concentration needed. As usually defined, the IC50 is the concentration needed to halve the response being measured.

For the compound `COC(=O)CC1CC2c3[nH]c4ccccc4c3CCN2CC1CCO` (racemic), the Emax in assay [1] came out at 99.7%; in assay [7], 99.9%. Further, the IC50 in assay [1] amounted to 1.2 µM; in [7], 0.499 µM; in [14] it was 5.89 µM. The inhibition entry in assay [2], in [4], in [5] and in assay [9] was “inactive” each time. The inhibition entry in assay [3], in [6] and in [12] was “Active” in each case. Also, the inhibition entry in assay [7] was “Dose-dependent effect”. Besides, the outcome in assay [8], in assay [10] and in [11] was Active. Moreover, in [13], the “Ratio IC50” value was “<=30”.
Take `COC(=O)C[C@@H]1C[C@H]2c3[nH]c4ccccc4c3CCN2C[C@@H]1CCO`: the figures for the Emax in assay [1] and in assay [7] were 86.3% and 99.1%, respectively. Further, the IC50 worked out at 49.9 µM in assay [1], 7.79 µM in [7] and 3.69 µM in [14]. In addition, the inhibition entry in assay [2], in assay [4], in [5] and in assay [9] was “inactive” throughout. For the same compound, the inhibition result in assay [3] is “Active”. Moreover, the inhibition result in assay [7] was “Dose-dependent effect”. Further, the “Ratio IC50” value in [13] is given as “<=30”.
`CC[C@H]1CN2CC[C@]3(C(=O)Nc4ccccc43)[C@@H]2C[C@@H]1/C(=C/OC)C(=O)OC` had an IC50 in assay [14] of 174 µM.
With `COC(=O)C[C@H]1C[C@@H]2c3[nH]c4ccccc4c3CCN2C[C@H]1CCO`, the results for the maximum response (Emax) in [1] and in assay [7] were 101% and 100%, respectively. Also, the figures for the IC50 in assay [1], in assay [7] and in assay [14] were 5.15 µM, 0.092 µM and 0.199 µM, respectively. The inhibition result in assay [2], in assay [3], in assay [4], in assay [5] and in assay [9] was “inactive” each time. For the same compound, the inhibition result in [7] is “Dose-dependent effect”. For the same compound, the inhibition result in assay [12] is “Active”. For the same compound, the “Ratio IC50” value in assay [13] was “<=30”.
